Marks after values point to notes of the source that are not given here.
System: Landrace x Large White reserve sows
Assay: Heat detection: estrus rate and estrus time in gilts, different doses (Example 2)
Format: in vivo, pigs
Settings: gilts
Text: Landrace x Large White reserve sows, about 230 days old, were randomly divided into a batch farrowing with FTAI and batch farrowing with FTAI combined with different doses of 1-[bis(4-cyanophenyl)methyl]-1,2,4-triazole groups, and during the experiment, the experimental sows in each group were fed regularly and gained free access to water according to the requirements of feeding management in the farm.
Referring to the dosage of 1-[bis(4-cyanophenyl)methyl]-1,2,4-triazole in clinical medicine and using standard weight-dosage conversion, the recommended dosage of 1-[bis(4-cyanophenyl)methyl]-1,2,4-triazole for sows was 50-150 μg/kg·BW/day, orally for consecutive 5 days, as derived by conversion. In addition, the applicant previously studied uniparous cows, and in the ovulation induction scheme, the reference dosage of 1-[bis(4-cyanophenyl)methyl]-1,2,4-triazole was 60-200 μg/kg·BW, administered in a single dose; furthermore, by means of conversion in conjunction with the dosage for model animals (mice) previously in the laboratory, various dosages were designed. The treatment methods of hormones and drugs for sows in each group were as follows: • batch farrowing with FTAI: the sows were fed with an altrenogest oral solution at 20 mg/animal at the same time every day, for 18 days; PMSG at 1000 IU/animal was injected intramuscularly 42 h after the last feeding with altrenogest, GnRH at 100 μg/animal was injected intramuscularly 80 h after the injection of PMSG, a first timed insemination was performed 24 h after the injection of GnRH, and a second timed insemination was performed 16 h after the first insemination.
Treatment group 1: the hormone treatment and mating schemes for gilts were the same as FTAI. The difference lay in that PMSG at 1000 IU/gilt was injected intramuscularly 42 h after the last feeding with altrenogest, and 1-[bis(4-cyanophenyl)methyl]-1,2,4-triazole at 12 μg/kg·BW/day was administered orally 8 h after the injection of PMSG, for 1 day.
Treatment group 2: the hormone treatment and mating schemes for gilts were the same as FTAI. The difference lay in that PMSG at 1000 IU/gilt was injected intramuscularly 42 h after the last feeding with altrenogest, and 1-[bis(4-cyanophenyl)methyl]-1,2,4-triazole at 12 μg/kg·BW/day was administered orally 8 h after the injection of PMSG, for 2 days.
Treatment group 3: the hormone treatment and mating schemes for gilts were the same as FTAI. The difference lay in that PMSG at 1000 IU/gilt was injected intramuscularly 42 h after the last feeding with altrenogest, and 1-[bis(4-cyanophenyl)methyl]-1,2,4-triazole at 20 μg/kg·BW/day was administered orally 8 h after the injection of PMSG, for 1 day.
Treatment group 4: the hormone treatment and mating schemes for sows were the same as FTAI. The difference lay in that PMSG at 1000 IU/gilt was injected intramuscularly 42 h after the last feeding with altrenogest, and 1-[bis (4-cyanophenyl)methyl]-1,2,4-triazole at 20 μg/kg·BW/day was administered orally 8 h after the injection of PMSG, for 2 days.
Treatment group 5: the hormone treatment and mating schemes for gilts were the same as FTAI. The difference lay in that PMSG at 1000 IU/animal was injected intramuscularly 42 h after the last feeding with altrenogest, and 1-[bis(4-cyanophenyl)methyl]-1,2,4-triazole at 20 μg/kg·BW/day was administered orally 8 h after the injection of PMSG, for 3 days.
Treatment group 6: the hormone treatment and mating schemes for gilts were the same as FTAI. The difference lay in that PMSG at 1000 IU/animal was injected intramuscularly 42 h after the last feeding with altrenogest, and 1-[bis(4-cyanophenyl)methyl]-1,2,4-triazole at 20 μg/kg·BW/day was administered orally 8 h after the injection of PMSG, for 5 days.
Treatment group 7: the hormone treatment and mating schemes for gilts were the same as FTAI. […]

[1] = Example 2 Treatment group 1: 12 μg/kg·BW/day orally, 1 day
[2] = Example 2 Treatment group 2: 12 μg/kg·BW/day orally, 2 days
[3] = Example 2 Treatment group 3: 20 μg/kg·BW/day orally, 1 day
[4] = Example 2 Treatment group 4: 20 μg/kg·BW/day orally, 2 days
[5] = Example 2 Treatment group 5: 20 μg/kg·BW/day orally, 3 days
[6] = Example 2 Treatment group 6: 20 μg/kg·BW/day orally, 5 days
[7] = Example 2 Treatment group 7: 40 μg/kg·BW/day orally, 1 day
[8] = Example 2 Treatment group 8: 40 μg/kg·BW/day orally, 5 days
[9] = Example 2 Treatment group 9: 80 μg/kg·BW/day orally, 5 days
[10] = Example 2 Treatment group 10: 160 μg/kg·BW/day orally, 5 days

For N#Cc1ccc(C(c2ccc(C#N)cc2)n2cncn2)cc1 [1-[bis(4-cyanophenyl)methyl]-1,2,4-triazole], the Estrus number [1] was 27, the “Estrus rate (%)” value [1] was 90.00^a % and the “Interval from stopping taking Altrenogest to estrus (days)” value (“Interval” for short) [1] was 6.13 ± 0.12^b days. The Estrus number [2] was 23, the “Estrus rate (%)” value [2] was 85.19^a % and the “Interval” value [2] was 6.07 ± 0.13^b days. The Estrus number [3] was 22, the “Estrus rate (%)” value [3] was 88.00^a % and the “Interval” value [3] was 6.11 ± 0.12^b days. For the same compound, the Estrus number [4] was 21, the “Estrus rate (%)” value [4] was 84.00^a % and the “Interval” value [4] was 6.07 ± 0.15^b days. For the same compound, the Estrus number [5] was 24, the “Estrus rate (%)” value [5] was 92.31^a % and the “Interval” value [5] was 6.19 ± 0.16^b days. For the same compound, the Estrus number [6] was 20, the “Estrus rate (%)” value [6] was 76.92^b % and the “Interval” value [6] was 6.70 ± 0.16^a days. For the same compound, the Estrus number [7] was 22, the “Estrus rate (%)” value [7] was 84.61^a % and the “Interval” value [7] was 6.77 ± 0.14^a days. The Estrus number [8] was 4, the “Estrus rate (%)” value [8] was 16.67^b % and the “Interval” value [8] was 6.25 ± 0.14^b days. The Estrus number [9] was 0, the “Estrus rate (%)” value [9] was 0.00^b % and the Estrus number [10] was 0. The “Estrus rate (%)” value [10] was 0.00^b %, the “Number of estrous animals at different times after stopping Altrenogest (day/animal)” value (day 4.5, Example 2 Treatment group 1: 12 μg/kg·BW/day orally, 1 day) was 0 animal and the “Number of estrous animals at different times after stopping Altrenogest (day/animal)” value (day 4.5, Example 2 Treatment group 2: 12 μg/kg·BW/day orally, 2 days) was 0 animal. The “Number of estrous animals at different times after stopping Altrenogest (day/animal)” value (day 4.5, Example 2 Treatment group 3: 20 μg/kg·BW/day orally, 1 day) was 0 animal, the “Number of estrous animals at different times after stopping Altrenogest (day/animal)” value (day 4.5, Example 2 Treatment group 4: 20 μg/kg·BW/day orally, 2 days) was 0 animal and the “Number of estrous animals at different times after stopping Altrenogest (day/animal)” value (day 4.5, Example 2 Treatment group 5: 20 μg/kg·BW/day orally, 3 days) was 0 animal. The “Number of estrous animals at different times after stopping Altrenogest (day/animal)” value (day 4.5, Example 2 Treatment group 6: 20 μg/kg·BW/day orally, 5 days) was 0 animal, the “Number of estrous animals at different times after stopping Altrenogest (day/animal)” value (day 4.5, Example 2 Treatment group 7: 40 μg/kg·BW/day orally, 1 day) was 0 animal and the “Number of estrous animals at different times after stopping Altrenogest (day/animal)” value (day 4.5, Example 2 Treatment group 8: 40 μg/kg·BW/day orally, 5 days) was 0 animal. For the same compound, the “Number of estrous animals at different times after stopping Altrenogest (day/animal)” value (day 5, Example 2 Treatment group 1: 12 μg/kg·BW/day orally, 1 day) was 1 animal, the “Number of estrous animals at different times after stopping Altrenogest (day/animal)” value (day 5, Example 2 Treatment group 2: 12 μg/kg·BW/day orally, 2 days) was 0 animal and the “Number of estrous animals at different times after stopping Altrenogest (day/animal)” value (day 5, Example 2 Treatment group 3: 20 μg/kg·BW/day orally, 1 day) was 0 animal. The “Number of estrous animals at different times after stopping Altrenogest (day/animal)” value (day 5, Example 2 Treatment group 4: 20 μg/kg·BW/day orally, 2 days) was 0 animal, the “Number of estrous animals at different times after stopping Altrenogest (day/animal)” value (day 5, Example 2 Treatment group 5: 20 μg/kg·BW/day orally, 3 days) was 2 animal and the “Number of estrous animals at different times after stopping Altrenogest (day/animal)” value (day 5, Example 2 Treatment group 6: 20 μg/kg·BW/day orally, 5 days) was 1 animal. The “Number of estrous animals at different times after stopping Altrenogest (day/animal)” value (day 5, Example 2 Treatment group 7: 40 μg/kg·BW/day orally, 1 day) was 0 animal, the “Number of estrous animals at different times after stopping Altrenogest (day/animal)” value (day 5, Example 2 Treatment group 8: 40 μg/kg·BW/day orally, 5 days) was 0 animal and the “Number of estrous animals at different times after stopping Altrenogest (day/animal)” value (day 5.5, Example 2 Treatment group 1: 12 μg/kg·BW/day orally, 1 day) was 8 animal. The “Number of estrous animals at different times after stopping Altrenogest (day/animal)” value (day 5.5, Example 2 Treatment group 2: 12 μg/kg·BW/day orally, 2 days) was 9 animal, the “Number of estrous animals at different times after stopping Altrenogest (day/animal)” value (day 5.5, Example 2 Treatment group 3: 20 μg/kg·BW/day orally, 1 day) was 7 animal and the “Number of estrous animals at different times after stopping Altrenogest (day/animal)” value (day 5.5, Example 2 Treatment group 4: 20 μg/kg·BW/day orally, 2 days) was 8 animal.

— patent US12678488B2, “Batch management method for improving farrowing rate or number of piglets born alive in swine” (priority 2024, dated 2026)
